Experimental data reported in US20110311651A1, “CA[…] THE TREATMENT OF OCULAR CANCER” (priority 2008, published 2011).
“Also recorded” adds a separate entry of the source.

Key:
[1] = system: RB355 cells; assay: Cytotoxicity assay for dose response in 384-well plates (Alamar Blue), RB355; assay type: cell-based, human
Method: (§1) Cytotoxicity assay for dose response in 384-well microtiter plates. Dose response studies were performed in 384-well microtiter plates (#3712, Corning Inc., Corning, N.Y.) according to the following protocol: cells were added in 45 μL medium to the screening plates using Flexdrop. After 72 h incubation was added 5 μL Alamar Blue using Flexdrop. The cells were then incubated for another 24 h, and the fluorescence intensity was read on LEADseeker™ Multimodality Imaging System as previously described. To calculate the IC50 for each compound toward each cell line, the dose response was assessed in duplicate and using 12 point doubling dilutions with 100 μM compound concentration as the upper limit. The dose response curve for each set of data was fitted separately, and the two IC50 values obtained were averaged.
To explore the structure activity relationship (SAR) within this chemical class a collection of 35 cardenolides and derivatives was constituted. The dose response for each compound toward the ocular cancer cell lines Y79, RB355, WERI-Rb-1 and C918 was then assessed.
Compared potency of the cardenolide ouabain with known agents in cell models of retinoblastoma. The potency of a representative of the cardenolide scaffold was compared to known effective agents against retinoblastoma. […]

[2] = system: Y79 cells; assay: Cytotoxicity assay for dose response in 384-well plates (Alamar Blue), Y79; assay type: cell-based, human
Method: as §1
Compared potency of the cardenolide ouabain with known agents in cell models of retinoblastoma. The potency of a representative of the cardenolide scaffold was compared to known effective agents against retinoblastoma. Namely, the dose response of the drug ouabain was tested with the human retinoblastoma cell lines Y79 and RB355, and its potency was compared to vincristine, etoposide, carboplatin, cisplatin, nutlin-3 and calcitriol. […] The activity of vincristine toward Y79 cells reached a plateau at 50% inhibition, which prevented the IC50 for this compound from being calculated.

[3] = system: Y79 cells; assay: Apoptosis assay, immunofluorescence detection of activated Caspase-3; assay type: cell-based, human; conditions: 0.5 μM, 72 h, 1% DMSO
Method: Apoptosis assay. Y79 cells seeded in culture medium in a 24-well plate were treated with either vincristine, etoposide, or ouabain at various concentrations in 1% DMSO (v/v) or with 1% DMSO (v/v) alone as a carrier control for 48 h or 72 h. After a wash in PBS, cells were fixed in solution in […] in PBS for 10 minutes. After a wash in PBS, cells for each condition were dried on a glass slide and washed once with water.
The immunofluorescence detection of cleaved Caspase-3 was performed at the Memorial Sloan-Kettering Cancer Center Molecular Cytology Core Facility using a Discovery XT processor (Ventana Medical Systems, Tucson, Ariz.). A rabbit polyclonal Cleaved Caspase 3 (Asp 175) antibody (#9661 L, Cell Signaling, Danvers, Mass.) was used at a concentration of 0.1 μg/ml. […] Automated fluorescence imaging of the green channel (activated Caspase-3) and blue channel (nuclei) was performed using an IN Cell Analyzer 1000 (GE Healthcare).
Compared effect of ouabain and clinical agents on apoptosis of Y79 cells. […] The drug concentrations used in this experiment were previously determined according to a pilot study where treated Y79 cells were live-stained with the dye Yo-Pro, which stains apoptic cells (Idziorek et al., J. Immunol. Methods 1995, 185, 249-258). […] Baseline Caspase-3 activation was evaluated with control Y79 cells treated with 1% DMSO (v/v) (FIG. 6A).

[4] = Body weight and signs of toxicity in the xenograft study; assay type: in vivo, mouse; conditions: throughout the treatment period
Method: In vivo studies. Subcutaneous xenograft experiments were performed at the Memorial Sloan-Kettering Cancer Center Antitumor Assessment Core Facility. Y79LUC cells (10E6) embedded in matrigel (BD Biosciences, San Jose, Calif.) were injected subcutaneously in the right flank of 8-weeks old ICR/SCID male mice. Treatment started when the tumors reached approximately 250 mm^3. The mice were randomized into three groups and two mice per group were treated with either 10% DMSO (v/v) (control group), 1.5 mg/kg ouabain or 15 mg/kg ouabain. Treatment was performed by continuous subcutaneous infusion using osmotic minipumps (#1007D, Alzet, Cupertino, Calif.). Tumor size was measured externally two times a week with a caliper. Body weight of each mouse was monitored as well as other signs of toxicity throughout the treatment period. Bioluminescent imaging of the tumors was performed once a week and prior to sacrifice as follows: mice were anesthetized by isofluorane inhalation and injected with D-luciferin at 50 mg/Kg (Xenogen) intraperitoneally; photonic emission was measured with the In Vivo Imaging System (IVIS 200, Xenogen) with a collection time of 5 seconds.
Assessment of the in vivo efficacy of ouabain in a xenograft model of retinoblastoma. The therapeutic effect of the drug ouabain in a mouse xenograft model of retinoblastoma was also investigated. […]

[5] = system: Y79 cells; assay: Pilot study, live staining of treated cells with the dye Yo-Pro; assay type: cell-based, human; conditions: concentrations higher than 0.5 μM
Method: Compared effect of ouabain and clinical agents on apoptosis of Y79 cells. To determine whether the anti-proliferative effects of the drug ouabain was mediated by induction of apoptosis, immunostaining of activated Caspase-3 in Y79 cells treated with cardenolides or known agents for retinoblastoma for 72 h (green channel) was performed; treated cells were also stained with Hoechst to image the nuclei (blue channel) (FIG. 6). The drug concentrations used in this experiment were previously determined according to a pilot study where treated Y79 cells were live-stained with the dye Yo-Pro, which stains apoptic cells (Idziorek et al., J. Immunol. Methods 1995, 185, 249-258). Based on this study, 72 h was identified as the optimum incubation time and drug concentrations were selected that maximized the number of apoptotic cells (data not shown). Baseline Caspase-3 activation was evaluated with control Y79 cells treated with 1% DMSO (v/v) (FIG. 6A).

| Structure (SMILES) | activity toward RB355 cells below 100 μM [1] | activity toward Y79 cells below 100 μM [2] | apoptosis (activated Caspase-3) compared to baseline [3] | toxicity ([4]; 15 mg/kg) | average body weight of treated versus control animals ([4]; 1.5 and 15 mg/kg) | effect on Y79 cells in the Yo-Pro pilot study [5] |
| --- | --- | --- | --- | --- | --- | --- |
| N.N.O=C([O-])C1(C(=O)[O-])CCC1.[Pt+2] [Carboplatin, carboplatin] | neither caboplatin or calcitriol had any significant activity | did not demonstrate any significant activity |  |  |  |  |
| C=C1/C(=C\C=C2/CCC[C@]3(C)[C@@H]([C@H](C)CCCC(C)(C)O)CC[C@@H]23)C[C@@H](O)C[C@@H]1O [calcitriol] | neither caboplatin or calcitriol had any significant activity | did not demonstrate any significant activity |  |  |  |  |
| N.N.[Cl][Pt][Cl] [cisplatin] |  | did not demonstrate any significant activity |  |  |  |  |
| C[C@@H]1O[C@@H](O[C@H]2C[C@@H](O)[C@]3(CO)[C@H]4[C@H](O)C[C@]5(C)[C@@H](C6=CC(=O)OC6)CC[C@]5(O)[C@@H]4CC[C@]3(O)C2)[C@H](O)[C@H](O)[C@H]1O [ouabain] |  |  | still induced significant apoptosis | did not induce any significant toxicity; also recorded: no signs of toxicity were observed | did not differ significantly | erradicated Y79 cells |
